According to US12180138B2, “Lipid nanoparticle compositions for delivering circular polynucleotides” (Orna Therapeutics, Inc., priority 2021, dated 2024):

Columns and labels:
[1] = tested on: splenic immune cells (T cells, myeloid cells, B cells, NK cells); assay: mOX40L expression in splenic immune cells after IV LNP-circular RNA (flow cytometry); assay type: in vivo, C57BL/6 mice; conditions: 1 mg/kg intravenously, 24 hours; IL:P 5.7; vs Lipid 15 of Table 10f
Description: The ionizable lipid:helper lipid:cholesterol:PEG-lipid molar ratio of these LNPs was 50:10:38.5:1.5. Dialysis of the LNPs were performed using PBS. C57BL/6 female mice (6-8 weeks, n=4) were dosed at either LNP comprising Lipid 1 of Table 10e or the Lipid 15 of Table 10f at 1 mg/kg intravenously. At 24 hours, the spleen from the mice were collected for flow cytometry analysis. mOX40L transfection of Lipid 1 of Table 10e and Lipid 15 of Table 10f were compared in T cells, myeloid cells, B cells, and NK cells.

splenic T cells = assay: mOX40L expression in splenic T cells after IV LNP-circular RNA; assay type: in vivo, C57BL/6 mice; conditions: 1 mg/kg intravenously, 24 hours
Description: The ionizable lipid:helper lipid: cholesterol:PEG-lipid molar ratio of these LNPs was 50:10:38.5:1.5. C57BL/6 female mice (6-8 weeks, n=4) were dosed at 1 mg/kg intravenously. At 24 hours, the spleen from the mice were collected for flow cytometry analysis, tested for weight loss and measured for serum alanine aminotransferase (ALT) after blood collection. mOX40L expression was measured in splenic T cells.

**Q.** Which results are given for CCCCCCCCCCCCC(O)CN(CCCO)CCCCCCCC(=O)OC(CCCCCCCC)CCCCCCCC (centres unmarked) [Lipid 1 of Table 10e, heptadecan-9-yl 8-((3-hydroxypropyl)(2-hydroxytetradecyl)amino)octanoate]?
**A.** mOX40L transfection in splenic immune cells [1]: comparable or higher levels of mOX40L transfection; mOX40L expression in splenic T cells (splenic T cells): expression of mOX40L in splenic T cells
